{"source": "patent US9631001B2", "about": "“Peptide antagonists of the vasopressin-2 receptor” (COMMISSARIAT A L'ENERGIE ATOMIQUE ET AUX ENERGIES …, priority 2012, dated 2017)", "assay_in_all_cases": "IonWorks electrophysiological assay", "type_in_all_cases": "cell-based", "conditions_in_all_cases": "1 μM", "key": {"[1]": {"biological_target": "T1, Cav1.2 (Homo sapiens, UniProt Q13936)", "T1 construct": "expressed in transfected cells", "description": "(§1) The stock solution was transferred to a master plate and into assay plates where 2 μl per well of the solution were placed. On the day of the assay, 198 μl of external solution containing the appropriate DMSO concentration was added and mixed thoroughly. This provided a 1:100 dilution. A further 1:3 dilution occurred upon addition to the cells in the IonWorks, giving a 1:300 dilution in total. On each assay plate, at least 8 wells were reserved for vehicle control (0.3% DMSO) and at least 8 wells for each positive control specific to the cell line tested. The positive controls were tested at a maximal blocking and an approximate IC50 concentration. The compounds used for positive controls: Nav1.5 100 μM and 5 mM Lidocaine, Kv4.3/KChIP2 20 μM and 500 μM Quinidine, Cav1.2 1 μM and 100 μM Nitrendipine, Kv1.5 300 μM and 10 mM 4-AP, KCNQ1/minK 10 μM and 100 μM Chromanol 293B, hERG 0.1 μM and 1 μM Cisapride, HCN4 50 μM and 3 mM Cesium, Kir2.1 20 μM and 500 μM Barium."}, "[2]": {"biological_target": "T2, Kv1.5 (Homo sapiens, UniProt P22460)", "T2 construct": "expressed in transfected cells", "T2 sequence (P22460 whole entry)": "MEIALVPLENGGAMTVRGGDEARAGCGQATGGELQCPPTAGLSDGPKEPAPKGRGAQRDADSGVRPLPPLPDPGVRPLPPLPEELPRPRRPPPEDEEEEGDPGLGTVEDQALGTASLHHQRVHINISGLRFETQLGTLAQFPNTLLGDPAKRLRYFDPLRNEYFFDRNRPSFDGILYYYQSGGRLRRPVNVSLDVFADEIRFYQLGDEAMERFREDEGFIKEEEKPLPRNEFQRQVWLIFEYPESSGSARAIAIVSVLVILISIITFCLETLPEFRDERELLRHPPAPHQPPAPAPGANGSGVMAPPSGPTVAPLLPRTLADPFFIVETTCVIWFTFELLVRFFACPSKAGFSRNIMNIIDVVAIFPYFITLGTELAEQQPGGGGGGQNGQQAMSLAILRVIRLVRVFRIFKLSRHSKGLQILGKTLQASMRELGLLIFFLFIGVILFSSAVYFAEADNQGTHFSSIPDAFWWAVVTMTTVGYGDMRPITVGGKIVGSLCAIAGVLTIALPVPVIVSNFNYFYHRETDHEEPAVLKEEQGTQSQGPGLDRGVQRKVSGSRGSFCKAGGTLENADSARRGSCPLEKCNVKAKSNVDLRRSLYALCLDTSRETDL", "description": "as §1"}, "[3]": {"biological_target": "T3, Nav1.5 (Homo sapiens, UniProt Q14524)", "T3 construct": "expressed in transfected cells", "T3 sequence (Q14524 whole entry)": "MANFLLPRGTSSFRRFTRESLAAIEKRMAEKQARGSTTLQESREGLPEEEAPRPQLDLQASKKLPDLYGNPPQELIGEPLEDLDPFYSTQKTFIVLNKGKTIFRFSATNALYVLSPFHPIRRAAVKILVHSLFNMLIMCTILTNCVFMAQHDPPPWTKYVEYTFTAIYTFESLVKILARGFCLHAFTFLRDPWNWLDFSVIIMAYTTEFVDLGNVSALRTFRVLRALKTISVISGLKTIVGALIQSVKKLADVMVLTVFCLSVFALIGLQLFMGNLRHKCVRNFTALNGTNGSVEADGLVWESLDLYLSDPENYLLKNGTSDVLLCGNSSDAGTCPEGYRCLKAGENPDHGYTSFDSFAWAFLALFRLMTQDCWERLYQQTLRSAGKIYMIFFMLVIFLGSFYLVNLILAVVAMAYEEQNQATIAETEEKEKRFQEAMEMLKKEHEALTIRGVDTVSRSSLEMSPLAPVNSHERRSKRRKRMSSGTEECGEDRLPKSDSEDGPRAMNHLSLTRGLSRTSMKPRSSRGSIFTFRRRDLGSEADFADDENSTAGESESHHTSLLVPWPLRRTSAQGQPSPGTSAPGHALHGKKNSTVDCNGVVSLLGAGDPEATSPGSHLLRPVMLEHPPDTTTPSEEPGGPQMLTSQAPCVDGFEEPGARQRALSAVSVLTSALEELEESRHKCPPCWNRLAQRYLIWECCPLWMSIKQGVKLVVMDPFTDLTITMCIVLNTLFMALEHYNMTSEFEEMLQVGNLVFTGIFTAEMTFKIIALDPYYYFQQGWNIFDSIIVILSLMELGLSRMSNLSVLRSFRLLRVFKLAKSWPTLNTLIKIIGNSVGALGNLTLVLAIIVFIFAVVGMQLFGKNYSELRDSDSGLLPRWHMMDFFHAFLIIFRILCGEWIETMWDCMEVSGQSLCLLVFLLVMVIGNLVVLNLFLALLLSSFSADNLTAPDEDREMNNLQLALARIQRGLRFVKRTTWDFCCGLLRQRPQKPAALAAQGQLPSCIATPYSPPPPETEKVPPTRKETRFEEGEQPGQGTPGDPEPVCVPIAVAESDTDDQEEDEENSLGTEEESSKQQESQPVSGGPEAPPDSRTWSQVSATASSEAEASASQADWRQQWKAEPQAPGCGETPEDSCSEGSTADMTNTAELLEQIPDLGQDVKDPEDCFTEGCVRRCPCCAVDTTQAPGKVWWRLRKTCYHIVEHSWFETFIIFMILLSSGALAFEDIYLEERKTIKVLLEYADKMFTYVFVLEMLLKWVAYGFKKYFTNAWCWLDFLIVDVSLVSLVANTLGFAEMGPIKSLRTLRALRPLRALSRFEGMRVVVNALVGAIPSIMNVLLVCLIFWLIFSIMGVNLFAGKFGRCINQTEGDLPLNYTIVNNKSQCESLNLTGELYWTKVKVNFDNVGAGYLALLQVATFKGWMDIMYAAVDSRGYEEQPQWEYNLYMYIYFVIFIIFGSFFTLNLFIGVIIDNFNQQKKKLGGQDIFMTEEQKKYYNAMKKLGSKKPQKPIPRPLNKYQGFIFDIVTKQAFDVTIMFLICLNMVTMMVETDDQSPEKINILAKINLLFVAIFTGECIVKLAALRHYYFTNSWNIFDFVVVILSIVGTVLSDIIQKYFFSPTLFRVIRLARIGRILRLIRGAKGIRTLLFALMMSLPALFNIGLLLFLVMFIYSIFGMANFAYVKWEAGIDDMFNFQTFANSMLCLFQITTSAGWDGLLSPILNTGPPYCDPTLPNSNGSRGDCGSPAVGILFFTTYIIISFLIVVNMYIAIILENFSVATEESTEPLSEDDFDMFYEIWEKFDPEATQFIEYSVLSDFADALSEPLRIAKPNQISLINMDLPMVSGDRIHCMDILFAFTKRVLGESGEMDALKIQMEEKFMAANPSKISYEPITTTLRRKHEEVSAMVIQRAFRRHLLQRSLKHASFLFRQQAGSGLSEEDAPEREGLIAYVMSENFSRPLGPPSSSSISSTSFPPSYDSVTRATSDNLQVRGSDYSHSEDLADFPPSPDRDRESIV", "description": "as §1"}}}
{"compound": "CC[C@H](C)[C@@H]1NC(=O)[C@H]([C@@H](C)O)NC(=O)[C@H](CO)NC(=O)[C@H](Cc2ccccc2)NC(=O)[C@H](CCCNC(=N)N)NC(=O)[C@H](CC(N)=O)NC(=O)[C@H](C)NC(=O)[C@H](CC(N)=O)NC(=O)CNC(=O)[C@H](CCCCN)NC(=O)[C@@H]2CSSC[C@@H]3NC(=O)[C@@H]4CCCN4C(=O)CNC(=O)[C@@H]4CCCN4C(=O)[C@H](CCCCN)NC(=O)[C@H](C(C)C)NC(=O)[C@@H]4CCCN4C(=O)[C@H](CC(C)C)NC(=O)[C@H](CC(N)=O)NC(=O)[C@@H](NC(=O)[C@H](Cc4ccccc4)NC(=O)[C@H](CO)NC(=O)[C@@H]4CCCN4C(=O)[C@@H](N)CCCNC(=N)N)CSSC[C@@H](C(=O)N[C@H](C(=O)NCC(=O)O)C(C)C)NC(=O)[C@H]([C@@H](C)O)NC(=O)[C@H](CCCNC(=N)N)NC(=O)[C@H](CCCNC(=N)N)NC(=O)[C@H](CSSC[C@H](NC(=O)[C@H](CCCCN)NC(=O)[C@H](CC(N)=O)NC(=O)[C@H]([C@@H](C)O)NC(=O)[C@H](CCCCN)NC(=O)[C@H](CCC(N)=O)NC(=O)[C@H](CO)NC(=O)[C@H](Cc4ccc(O)cc4)NC(=O)[C@H](Cc4ccc(O)cc4)NC(=O)[C@H](Cc4ccccc4)NC(=O)[C@H](C)NC(=O)[C@H](CO)NC(=O)[C@H](Cc4ccccc4)NC(=O)[C@H](Cc4ccccc4)NC(=O)CNC(=O)[C@H](CC(N)=O)NC3=O)C(=O)N[C@@H](Cc3c[nH]cn3)C(=O)N[C@@H](CO)C(=O)N[C@@H](Cc3ccccc3)C(=O)N[C@@H]([C@@H](C)O)C(=O)N[C@@H](Cc3ccc(O)cc3)C(=O)NCC(=O)NCC(=O)N2)NC(=O)[C@H](CCCCN)NC(=O)[C@H](CCC(=O)O)NC1=O", "note": "[U-Da2a]", "values": [{"measurement": "inhibition of Cav1.2", "setting": "[1]", "result": "did not appear to exhibit significant inhibition"}, {"measurement": "inhibition of Kv1.5", "setting": "[2]", "result": "did not appear to exhibit significant inhibition"}, {"measurement": "inhibition of Nav1.5", "setting": "[3]", "result": "did not appear to exhibit significant inhibition"}]}
